Source: ChEMBL document CHEMBL5154811, “Discovery of SPH5030, a Selective, Potent, and Irreversible Tyrosine Kinase Inhibitor for HER2-Amplified and HER2-Mutant Cancer Treatment” (J Med Chem, 2022)

Experiments:
[1] = Toxicity in BALB/c nude mouse xenografted with human BT-474 cells assessed as reduction in body weight at 5 to 40 mg/kg, po administered once daily for 21 days; assay type: organism-based; settings: in vivo, 504 h, dose 5-40 mg/kg, time 21 day
[2] = Oral bioavailability in cynomolgus monkey at 15 mg/kg measured upto 1440 mins by LC/MS/MS analysis; assay type: ADME, organism-based, Macaca fascicularis; settings: in vivo
[3] = Antiproliferative activity against human KM12-Luc cells assessed as cell growth inhibition incubated for 72 hrs by Celltiter-Glo assay; assay type: functional, cell-based
[4] = Toxicity in BALB/c nude mouse xenografted with mouse BaF3 cells harbouring HER2 A775_G776insYVMA mutant assessed as reduction in body weight at 10 to 40 mg/kg, po qd for 13 days; assay type: organism-based; settings: in vivo, 312 h, dose 10-40 mg/kg, time 13 day
[5] = Toxicity in BALB/c nude mouse xenografted with human NCI-N87 cells assessed as mortality at 5 to 40 mg/kg, po administered once daily for 21 days; assay type: organism-based; settings: in vivo, 504 h, dose 5-40 mg/kg, time 21 day
NCI-N87 [6] = assay: Antitumor activity against human NCI-N87 cells xenografted in BALB/c nude mouse assessed as tumor growth inhibition by measuring relative tumor growth at 10 mg/kg/day, po administered once daily for 21 days by caliper method relative to control; assay type: functional; settings: time 21 day
NCI-H441 = assay: Antiproliferative activity against human NCI-H441 cells assessed as cell growth inhibition incubated for 72 hrs by Celltiter-Glo assay; assay type: functional, cell-based; settings: NCI-H441, 72 h
MDA-MB-468 = assay: Antiproliferative activity against human MDA-MB-468 cells overexpressing wild type EGFR assessed as cell growth inhibition incubated for 72 hrs by Celltiter-Glo assay; assay type: functional, cell-based; settings: MDA-MB-468, 72 h
NCI-N87 [7] = assay: Antitumor activity against human NCI-N87 cells xenografted in BALB/c nude mouse assessed as tumor growth inhibition by measuring relative tumor growth at 5 mg/kg/day, po administered once daily for 21 days by caliper method relative to control; assay type: functional; settings: time 21 day
[8] = Cmax in cynomolgus monkey at 15 mg/kg, po measured upto 1440 mins by LC/MS/MS analysis; assay type: ADME, organism-based, Macaca fascicularis; set-up: dose 15 mg/kg, time < 1440 min, route po; settings: in vivo
[9] = Tmax in Sprague-Dawley rat at 10 mg/kg, po measured upto 1440 mins by LC/MS/MS analysis; assay type: ADME, organism-based; settings: in vivo
COLO-678 = assay: Antiproliferative activity against human COLO-678 cells assessed as cell growth inhibition incubated for 72 hrs by Celltiter-Glo assay; assay type: functional, cell-based; settings: COLO-678, 72 h
[10] = AUC (0 to t) in Sprague-Dawley rat at 10 mg/kg, po measured upto 1440 mins by LC/MS/MS analysis; assay type: ADME, organism-based; set-up: dose 10 mg/kg, time < 1440 min, route po; settings: in vivo
[11] = Oral bioavailability in Sprague-Dawley rat at 10 mg/kg measured upto 1440 mins by LC/MS/MS analysis; assay type: ADME, organism-based; settings: in vivo
NCI-N87 [12] = assay: Antiproliferative activity against human NCI-N87 cells assessed as inhibition of cell growth incubated for 72 hrs by Celltiter-Glo assay; assay type: functional, cell-based; settings: NCI-N87, 72 h
[13] = Half life in cynomolgus monkey at 1 mg/kg, iv measured upto 1440 mins by LC/MS/MS analysis; assay type: ADME, organism-based, Macaca fascicularis; settings: in vivo
BT-474 [14] = assay: Antitumor activity against human BT-474 cells xenografted in BALB/c nude mouse assessed as tumor growth inhibition by measuring relative tumor growth at 10 mg/kg/day, po administered once daily for 21 days by caliper method relative to control; assay type: functional; settings: time 21 day
[15] = Metabolic stability in human liver microsomes assessed as intrinsic clearance at 1 uM preincubated for 5 mins followed by NADPH addition by LC-MS/MS analysis; assay type: ADME, Microsome; settings: read-out: CLH
[16] = molecular target: Epidermal growth factor receptor (Homo sapiens, UniProt P00533); assay: Inhibition of wild type human N-terminal GST tagged EGFR (669 to 1210 residues) expressed in Sf21 insect cells incubated for 30 mins in presence of ATP by HTRF analysis
[17] = Volume of distribution at steady state in Sprague-Dawley rat at 3 mg/kg, iv measured upto 1440 mins by LC/MS/MS analysis; assay type: ADME, organism-based; settings: in vivo, read-out: Vdss
[18] = Toxicity in BALB/c nude mouse xenografted with mouse BaF3 cells harbouring HER2 A775_G776insYVMA mutant assessed as mortality at 10 to 40 mg/kg, po qd for 13 days; assay type: organism-based; settings: in vivo, 312 h, dose 10-40 mg/kg, time 13 day
[19] = Half life in ICR mouse at 3 mg/kg, iv measured upto 1440 mins by LC/MS/MS analysis; assay type: ADME, organism-based; settings: in vivo
[20] = molecular target: Receptor tyrosine-protein kinase erbB-2 (Homo sapiens, UniProt P04626, V777L); assay: Inhibition of HER2 V777L mutant (unknown origin) incubated for 120 mins in presence of 33P-ATP by P81 ion exchange cellulose chromatography
[21] = molecular target: Receptor tyrosine-protein kinase erbB-2 (Homo sapiens, UniProt P04626, D769Y); assay: Inhibition of HER2 D769Y mutant (unknown origin) incubated for 120 mins in presence of 33P-ATP by P81 ion exchange cellulose chromatography
[22] = Half life in Sprague-Dawley rat at 3 mg/kg, iv measured upto 1440 mins by LC/MS/MS analysis; assay type: ADME, organism-based; settings: in vivo
[23] = AUC (0 to t) in cynomolgus monkey at 15 mg/kg, po measured upto 1440 mins by LC/MS/MS analysis; assay type: ADME, organism-based, Macaca fascicularis; set-up: time < 1440 min, dose 15 mg/kg, route po; settings: in vivo
BaF3 = assay: Antiproliferative activity against mouse BaF3 cells harbouring HER2 […] mutant assessed as inhibition of cell growth incubated for 72 hrs by Celltiter-Glo assay; assay type: functional, cell-based; settings: BaF3, 72 h
[24] = Clearance in ICR mouse at 3 mg/kg, iv measured upto 1440 mins by LC/MS/MS analysis; assay type: ADME, organism-based; settings: in vivo
NUGC-4 = assay: Antiproliferative activity against human NUGC-4 cells assessed as cell growth inhibition incubated for 72 hrs by Celltiter-Glo assay; assay type: functional, cell-based; settings: NUGC-4, 72 h
ES-2 = assay: Antiproliferative activity against human ES2 cells assessed as cell growth inhibition incubated for 72 hrs by Celltiter-Glo assay; assay type: functional, cell-based; settings: ES-2, 72 h
[25] = AUC (0 to t) in ICR mouse at 10 mg/kg, po measured upto 1440 mins by LC/MS/MS analysis; assay type: ADME, organism-based; set-up: time < 1440 min, dose 10 mg/kg, route po; settings: in vivo
[26] = Volume of distribution at steady state in ICR mouse at 3 mg/kg, iv measured upto 1440 mins by LC/MS/MS analysis; assay type: ADME, organism-based; settings: in vivo, read-out: Vdss
[27] = Tmax in ICR mouse at 10 mg/kg, po measured upto 1440 mins by LC/MS/MS analysis; assay type: ADME, organism-based; settings: in vivo
[28] = Cmax in Sprague-Dawley rat at 10 mg/kg, po measured upto 1440 mins by LC/MS/MS analysis; assay type: ADME, organism-based; set-up: time < 1440 min, dose 10 mg/kg, route po; settings: in vivo
[29] = molecular target: Receptor tyrosine-protein kinase erbB-2 (Homo sapiens, UniProt P04626, D769H); assay: Inhibition of HER2 D769H mutant (unknown origin) incubated for 120 mins in presence of 33P-ATP by P81 ion exchange cellulose chromatography
BT-474 [30] = assay: Antitumor activity against human BT-474 cells xenografted in BALB/c nude mouse assessed as tumor growth inhibition at 10 mg/kg/day, po administered once daily for 21 days relative to control; assay type: functional; settings: BT-474, 504 h, time 21 day, read-out: TGI

Sequence of Epidermal growth factor receptor (P00533 whole entry, the tested form may be a part): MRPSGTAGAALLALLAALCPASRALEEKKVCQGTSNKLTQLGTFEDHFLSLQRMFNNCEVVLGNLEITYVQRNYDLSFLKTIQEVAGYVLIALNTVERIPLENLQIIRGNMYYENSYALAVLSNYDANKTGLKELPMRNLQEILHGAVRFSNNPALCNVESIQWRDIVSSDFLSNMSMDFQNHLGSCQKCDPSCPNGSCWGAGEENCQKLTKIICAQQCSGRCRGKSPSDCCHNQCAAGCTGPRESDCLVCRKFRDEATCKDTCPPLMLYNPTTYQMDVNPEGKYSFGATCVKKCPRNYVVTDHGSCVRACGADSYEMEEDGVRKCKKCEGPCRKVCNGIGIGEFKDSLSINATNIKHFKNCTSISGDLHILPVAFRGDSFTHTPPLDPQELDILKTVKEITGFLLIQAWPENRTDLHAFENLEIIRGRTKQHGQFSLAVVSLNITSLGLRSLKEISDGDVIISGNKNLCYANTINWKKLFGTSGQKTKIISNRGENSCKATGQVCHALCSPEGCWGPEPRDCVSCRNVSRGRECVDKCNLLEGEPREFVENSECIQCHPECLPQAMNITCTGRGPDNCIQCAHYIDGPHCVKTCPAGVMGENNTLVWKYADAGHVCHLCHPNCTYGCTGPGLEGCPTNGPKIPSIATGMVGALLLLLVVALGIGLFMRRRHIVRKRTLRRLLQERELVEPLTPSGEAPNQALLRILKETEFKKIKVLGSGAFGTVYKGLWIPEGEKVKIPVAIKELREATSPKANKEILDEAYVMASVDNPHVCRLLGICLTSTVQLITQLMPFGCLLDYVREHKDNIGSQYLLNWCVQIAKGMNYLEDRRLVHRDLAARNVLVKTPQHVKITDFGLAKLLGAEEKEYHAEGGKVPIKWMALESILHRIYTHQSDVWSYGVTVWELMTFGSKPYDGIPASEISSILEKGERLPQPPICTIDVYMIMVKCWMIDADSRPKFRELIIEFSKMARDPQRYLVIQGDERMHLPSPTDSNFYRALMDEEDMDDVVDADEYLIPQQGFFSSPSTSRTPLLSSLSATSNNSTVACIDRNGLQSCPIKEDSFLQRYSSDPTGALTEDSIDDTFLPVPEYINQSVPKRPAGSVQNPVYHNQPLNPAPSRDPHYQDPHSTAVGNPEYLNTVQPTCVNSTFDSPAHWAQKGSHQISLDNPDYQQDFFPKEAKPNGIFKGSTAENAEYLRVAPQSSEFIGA
Sequence of Receptor tyrosine-protein kinase erbB-2 (Homo sapiens, UniProt P04626, D769Y) (P04626 23-1255 D769Y limits assumed): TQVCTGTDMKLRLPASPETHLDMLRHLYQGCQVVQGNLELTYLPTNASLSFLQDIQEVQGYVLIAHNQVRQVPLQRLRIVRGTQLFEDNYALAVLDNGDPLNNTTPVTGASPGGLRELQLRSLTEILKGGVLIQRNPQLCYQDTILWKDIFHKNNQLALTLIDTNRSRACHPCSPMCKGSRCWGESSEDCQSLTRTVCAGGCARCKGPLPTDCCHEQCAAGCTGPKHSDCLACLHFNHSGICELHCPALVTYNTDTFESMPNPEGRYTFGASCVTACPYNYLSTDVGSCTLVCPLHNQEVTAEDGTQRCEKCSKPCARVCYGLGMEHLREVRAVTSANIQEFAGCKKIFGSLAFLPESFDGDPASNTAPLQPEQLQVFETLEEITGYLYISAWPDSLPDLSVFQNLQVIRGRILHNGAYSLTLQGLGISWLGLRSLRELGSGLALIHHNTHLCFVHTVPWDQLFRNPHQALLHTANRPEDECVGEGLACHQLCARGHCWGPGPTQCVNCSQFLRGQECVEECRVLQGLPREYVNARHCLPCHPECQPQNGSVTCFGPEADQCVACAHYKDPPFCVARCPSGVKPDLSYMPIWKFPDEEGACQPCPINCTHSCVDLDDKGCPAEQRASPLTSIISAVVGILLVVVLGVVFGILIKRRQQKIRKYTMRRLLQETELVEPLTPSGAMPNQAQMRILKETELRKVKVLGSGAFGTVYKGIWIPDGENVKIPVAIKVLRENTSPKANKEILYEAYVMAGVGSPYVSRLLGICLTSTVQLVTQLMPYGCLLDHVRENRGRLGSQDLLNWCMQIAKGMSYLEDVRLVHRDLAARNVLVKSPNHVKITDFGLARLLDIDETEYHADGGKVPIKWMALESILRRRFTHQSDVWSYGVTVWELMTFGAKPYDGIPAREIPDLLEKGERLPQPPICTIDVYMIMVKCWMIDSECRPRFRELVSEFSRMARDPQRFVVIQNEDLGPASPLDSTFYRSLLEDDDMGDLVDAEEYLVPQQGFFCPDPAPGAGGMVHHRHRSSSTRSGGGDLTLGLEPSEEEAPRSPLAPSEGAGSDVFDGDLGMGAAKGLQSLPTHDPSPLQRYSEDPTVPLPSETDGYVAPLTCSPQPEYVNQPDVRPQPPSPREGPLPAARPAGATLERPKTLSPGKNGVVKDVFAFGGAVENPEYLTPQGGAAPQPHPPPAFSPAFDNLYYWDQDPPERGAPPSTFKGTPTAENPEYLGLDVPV
Sequence of Receptor tyrosine-protein kinase erbB-2 (Homo sapiens, UniProt P04626, D769H) (P04626 23-1255 D769H limits assumed): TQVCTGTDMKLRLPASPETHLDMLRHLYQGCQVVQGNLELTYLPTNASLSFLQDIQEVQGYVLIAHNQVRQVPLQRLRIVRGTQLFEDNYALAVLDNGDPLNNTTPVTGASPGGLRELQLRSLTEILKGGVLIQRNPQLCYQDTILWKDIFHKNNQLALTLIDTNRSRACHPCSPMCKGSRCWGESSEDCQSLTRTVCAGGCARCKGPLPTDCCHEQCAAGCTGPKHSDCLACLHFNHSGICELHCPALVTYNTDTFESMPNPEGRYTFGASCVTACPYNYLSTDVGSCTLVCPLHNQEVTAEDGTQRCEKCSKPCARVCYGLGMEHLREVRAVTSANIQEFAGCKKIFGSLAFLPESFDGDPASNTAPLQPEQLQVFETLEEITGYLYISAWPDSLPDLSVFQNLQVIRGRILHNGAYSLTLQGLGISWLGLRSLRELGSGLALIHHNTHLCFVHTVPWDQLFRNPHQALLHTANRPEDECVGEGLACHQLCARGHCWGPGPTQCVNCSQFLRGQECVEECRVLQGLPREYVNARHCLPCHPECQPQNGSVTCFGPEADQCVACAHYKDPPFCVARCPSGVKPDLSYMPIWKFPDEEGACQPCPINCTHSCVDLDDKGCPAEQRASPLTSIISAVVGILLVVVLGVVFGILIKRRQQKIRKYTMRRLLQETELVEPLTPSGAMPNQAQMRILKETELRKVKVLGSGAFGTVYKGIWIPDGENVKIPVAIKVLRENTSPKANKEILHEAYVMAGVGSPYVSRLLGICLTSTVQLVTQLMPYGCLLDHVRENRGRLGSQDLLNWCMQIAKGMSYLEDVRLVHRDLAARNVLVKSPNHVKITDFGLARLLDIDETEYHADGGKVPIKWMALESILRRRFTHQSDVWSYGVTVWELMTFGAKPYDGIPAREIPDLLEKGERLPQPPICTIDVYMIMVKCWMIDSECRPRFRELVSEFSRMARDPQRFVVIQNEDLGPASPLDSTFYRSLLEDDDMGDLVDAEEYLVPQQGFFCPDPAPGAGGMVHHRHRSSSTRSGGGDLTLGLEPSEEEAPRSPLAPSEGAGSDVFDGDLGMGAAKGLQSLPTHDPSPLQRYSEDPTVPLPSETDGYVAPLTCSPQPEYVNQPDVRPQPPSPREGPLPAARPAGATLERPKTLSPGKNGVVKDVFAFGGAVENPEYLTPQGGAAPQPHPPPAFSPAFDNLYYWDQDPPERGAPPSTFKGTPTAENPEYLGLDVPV
Sequence of Receptor tyrosine-protein kinase erbB-2 (Homo sapiens, UniProt P04626, V777L) (P04626 23-1255 V777L limits assumed): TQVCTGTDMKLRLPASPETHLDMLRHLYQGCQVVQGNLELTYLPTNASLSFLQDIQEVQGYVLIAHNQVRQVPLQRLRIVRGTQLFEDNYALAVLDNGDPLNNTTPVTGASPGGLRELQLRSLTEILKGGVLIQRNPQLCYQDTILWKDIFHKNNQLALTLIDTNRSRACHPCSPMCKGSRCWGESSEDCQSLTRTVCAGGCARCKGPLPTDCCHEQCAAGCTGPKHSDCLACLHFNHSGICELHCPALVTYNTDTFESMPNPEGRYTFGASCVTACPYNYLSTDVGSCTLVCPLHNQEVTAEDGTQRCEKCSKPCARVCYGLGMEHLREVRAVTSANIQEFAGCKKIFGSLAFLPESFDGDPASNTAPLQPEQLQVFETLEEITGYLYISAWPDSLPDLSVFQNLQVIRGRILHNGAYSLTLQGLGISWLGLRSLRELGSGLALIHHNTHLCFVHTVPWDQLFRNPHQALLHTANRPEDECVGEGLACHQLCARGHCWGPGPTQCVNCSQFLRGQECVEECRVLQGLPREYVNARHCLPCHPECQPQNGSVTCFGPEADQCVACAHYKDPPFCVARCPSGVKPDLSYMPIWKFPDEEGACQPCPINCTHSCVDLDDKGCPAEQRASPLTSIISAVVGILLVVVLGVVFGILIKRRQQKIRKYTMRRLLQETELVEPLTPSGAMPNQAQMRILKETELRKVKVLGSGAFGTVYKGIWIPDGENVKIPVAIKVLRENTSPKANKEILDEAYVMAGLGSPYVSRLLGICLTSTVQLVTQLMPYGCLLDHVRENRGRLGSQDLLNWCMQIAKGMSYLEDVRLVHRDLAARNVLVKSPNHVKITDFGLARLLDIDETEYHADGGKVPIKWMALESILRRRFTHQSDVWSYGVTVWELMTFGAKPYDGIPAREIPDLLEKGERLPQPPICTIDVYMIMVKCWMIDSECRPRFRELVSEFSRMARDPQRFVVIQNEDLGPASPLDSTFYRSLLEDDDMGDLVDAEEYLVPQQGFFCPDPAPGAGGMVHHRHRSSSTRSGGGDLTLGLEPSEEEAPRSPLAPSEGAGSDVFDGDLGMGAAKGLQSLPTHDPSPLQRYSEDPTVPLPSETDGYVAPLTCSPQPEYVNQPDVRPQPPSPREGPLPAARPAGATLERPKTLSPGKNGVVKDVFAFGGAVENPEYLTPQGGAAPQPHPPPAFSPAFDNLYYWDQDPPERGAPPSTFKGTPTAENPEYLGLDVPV

Structure (SMILES): CCOc1cc2ncnc(Nc3ccc(Oc4cc5nncn5cn4)c(C)c3)c2cc1NC(=O)/C(F)=C/[C@H]1CCCN1C
- Activity [1]: Non-Toxic
- bioavailability [2]: 43.4%
- IC50 [3]: 3600 nM
- Activity [4]: Non-Toxic
- Activity [5]: Non-Toxic
- T/C (NCI-N87 [6]): 2.6%
- IC50 (NCI-H441): 4260 nM
- IC50 (MDA-MB-468): 2980 nM
- T/C (NCI-N87 [7]): 5.26%
- Cmax [8]: 790 ng/mL
- Tmax [9]: 3.33 h
- IC50 (COLO-678): 6070 nM
- AUC(0-t) at 24 h [10]: 5470 ng·h/mL
- bioavailability [11]: 71.3%
- IC50 (NCI-N87 [12]): 1.09 nM
- half-life [13]: 7.46 h
- T/C (BT-474 [14]): 8.31%
- microsomal CLint at 1 µM [15]: 2.5 µL/min/mg
- IC50 [16]: 8.13 nM
- Vd [17]: 3.55 L/kg
- Activity [18]: Non-Toxic
- half-life [19]: 3.76 h
- IC50 [20]: 0.16 nM
- IC50 [21]: 0.43 nM
- half-life [22]: 4.56 h
- AUC(0-t) at 24 h [23]: 10400 ng·h/mL
- IC50 (BaF3): 6.3 nM
- clearance [24]: 11.7 mL/min/kg
- IC50 (NUGC-4): 1220 nM
- IC50 (ES-2): 2720 nM
- AUC(0-t) at 24 h [25]: 13100 ng·h/mL
- Vd [26]: 2.96 L/kg
- Tmax [27]: 2.67 h
- Cmax [28]: 760 ng/mL
- IC50 [29]: 0.42 nM
- inhibition in vivo at 10 mg/kg/day (BT-474 [30]): 123%
